Experimental data as given in ChEMBL document CHEMBL1152926, “Terpenoid constituents of Abies chensiensis with potential anti-inflammatory activity” (J Nat Prod, 2009).
Converted amounts (≈) assume the structure as drawn.

What was measured:
RAW264.7 [1] = assay: Cytotoxicity against mouse RAW264.7 cells; format: cell-based
RAW264.7 [2] = assay: Antiinflammatory activity in mouse RAW264.7 cells assessed as inhibition of LPS-induced nitric oxide production; format: functional, cell-based

Row | SMILES | IC50 (RAW264.7 [1]) | IC50 (RAW264.7 [2])
1 | C=C[C@@](C)(O)[C@H]1C[C@@H]2[C@@]3(C)CCCC(C)(C)[C@@H]3CC[C@@]2(C)O1 | 0.6 µg/mL (≈ 1.96 µM) | 1.9 µg/mL (≈ 6.2 µM)
2 | C=C[C@@](C)(O)CC[C@H]1C(=C)CC[C@H]2C(C)(C)CCC[C@]12C [MANOOL] | 32.3 µg/mL (≈ 111 µM) | 9.6 µg/mL (≈ 33 µM)
3 | CC1=CC(O)(C[C@@H](C)C2=CC[C@@]3(C)C4=C(CC[C@]23C)[C@@]2(C)CCC(=O)C(C)(C)[C@@H]2CC4)OC1=O (some centres not stated) [NEOABIESLACTONE E] | 20 µg/mL (≈ 42.9 µM) | 9.1 µg/mL (≈ 19.5 µM)
4 | N=C(N)NN [PIMAGEDINE] |  | 3.4 µg/mL (≈ 45.9 µM)
